Experimental findings from patent US10633386B2, “BET protein degraders” (THE REGENTS OF THE UNIVERSITY OF MICHIGAN, priority 2016, dated 2020) are described below.

The structures appear in SMILES notation.

The test system of this assay is MDA-MB-468 xenograft. Description: In vivo antitumor activity in MDA-MB-468 xenograft model. Set-up: species or system SCID mice. The procedure:
For the in vivo efficacy experiments of this example, when tumors reached 80-200 mm^3, SCID mice were randomized into groups. Cpd. A, Cpd. No. 4, Cpd. No. 6, or vehicle control (10% PEG400: 3% Cremophor: 87% PBS, or 2% TPGS:98% PEG200) was given at the dose and duration indicated. Tumor sizes and animal weights were measured 2-3 times per week. Tumor volume (mm^3)=(length×width^2)/2. Tumor growth inhibition was calculated as TGI (%)=(Vc−Vt)/(Vc−Vo)*100, where Vc, Vt are the median of control and treated groups at the end of the study and Vo at the start. All the in vivo studies were performed under an animal protocol approved by the University Committee on Use and Care of Animals of the University of Michigan, in accordance with the recommendations in the Guide for the Care and Use of Laboratory Animals of the National Institutes of Health.
No. 4 was determined in xenograft tumor models of TNBC cell lines.

In the case of `CCn1nc(C2CC2)cc1Nc1nc(C(=O)NCCCOCCOCCOCCCNc2cccc3c2C(=O)N(C2CCC(=O)NC2=O)C3=O)nc2[nH]c3cc(-c4c(C)noc4C)c(OC)cc3c12` (centres unmarked) [Cpd. No. 4], under “MDA-MB-468 model, 10 mg/kg, IV, 3 times per week for 2-3 weeks (FIG. 11)”, the antitumor activity result was “limited or no antitumor activity”. Also, under “MDA-MB-468 xenograft model in mice (FIG. 11)”, the tumor growth result is on record as “reduce tumor growth”.
